# Laboratory results: article PMC10445491 (Frontiers in Chemistry, 2023)
# “Also recorded” adds a separate entry of the source. Read-outs that look alike come from different tables or passages of the source.
# What was measured:
# [1] = biological target: neuraminidase from Clostridium perfringens (BNA, EC 3.2.1.18); type: biochemical; conditions: for fold higher inhibition than compound 6: ratio of IC50 vs compound 6
# [2] = biological target: neuraminidase from Clostridium perfringens (BNA); type: biochemical; conditions: for Kinetic mode: Lineweaver-Burk and Dixon plots
# [3] = biological target: neuraminidase from Clostridium perfringens (BNA) (Clostridium perfringens, UniProt P10481); type: binding
# [4] = sodium acetate buffer pH 5.0, substrate 100 μM, BNA 0.02 unit/mL, triplicate, read-out: IC50
# [5] = Dixon plots, read-out: K i (inhibition constant)
# Chain of neuraminidase from Clostridium perfringens (BNA) (Clostridium perfringens, UniProt P10481) (P10481 whole entry, looked up): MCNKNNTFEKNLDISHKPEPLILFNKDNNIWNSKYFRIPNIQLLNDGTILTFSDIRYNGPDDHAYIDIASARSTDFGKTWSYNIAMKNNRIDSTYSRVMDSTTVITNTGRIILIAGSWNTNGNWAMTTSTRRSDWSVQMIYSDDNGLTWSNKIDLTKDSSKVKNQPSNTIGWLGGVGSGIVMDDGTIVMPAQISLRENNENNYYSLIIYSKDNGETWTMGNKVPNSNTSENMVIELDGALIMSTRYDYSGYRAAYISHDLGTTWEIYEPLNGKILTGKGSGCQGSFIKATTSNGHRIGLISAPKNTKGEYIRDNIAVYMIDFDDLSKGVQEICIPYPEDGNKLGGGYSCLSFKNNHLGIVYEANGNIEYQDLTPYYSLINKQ
Compound,"IC50 [1, 4] [µM]","Ki [2, 5] [µM]",Kinetic mode [2],K A (affinity constant) [3] [L/mol],K SV (Stern-Volmer constant) [3] [L/mol],n (binding number of xanthone to the BNA) [3],"IC50 ([1]; text in the panels of supplementary Figure S36, read-out: IC50 printed in Figure S36) [µM]",Change of BNA fluorescence (FS) intensity with increasing inhibitor concentration [3],fold more effective relative to gentisein ([1]; ratio of IC50 vs gentisein) [fold],fold higher inhibition than compound 6 [1] [fold],fold more effective than compound 3 ([1]; ratio of IC50 vs compound 3) [fold],Time-dependent (slow-binding) behaviour ([2]; preincubation 0-75 min),"Reversibility of inhibition ([2]; residual activity vs enzyme concentration (0.01, 0.02, 0.04 unit/mL))","k 3 ([2]; slow-binding inhibition, forward rate of enzyme-inhibitor complex formation) [M⁻¹ s⁻¹]","Ki ([2]; slow-binding inhibition, preincubation with 0, 0.2, 0.4, 0.8 µM inhibitor, read-out: K i app) [µM]","k 4 ([2]; slow-binding inhibition, reverse rate) [min⁻¹]"
"C=C(CCC=C(C)C)C(O)Cc1c(O)c(CC=C(C)C)c(O)c2c(=O)c3cc(O)ccc3oc12 (stereo not shown) [Compound 5, cratoxanthon F]",9.2 ± 0.2,9.1,Non-competitive,1030,10230,0.4992,–,–,–,–,–,–,–,–,–,–
"O=c1c2cc(O)ccc2oc2cc(O)cc(O)c12 [Gentisein, reference compound]",21.4 ± 0.5,–,–,110,5350,0.3701,21.4,–,–,–,–,–,–,–,–,–
"(E)-1,3,7-trihydroxy-4-(7-hydroxy-3,7-dimethyloct-2-en-1-yl)-2-(3-methylbut-2-en-1-yl)-9H-xanthen-9-one [Compound 2]",38.9 ± 0.6,40.7,Non-competitive,20,970,0.1796,–,did not decrease,–,–,–,–,–,–,–,–
"CC(C)=CCC/C(C)=C/Cc1c(O)c(CC=C(C)C)c(O)c2c(=O)c3cc(O)ccc3oc12 [Compound 6, cochinechinone A]",9.8 ± 0.3,9.6,non-competitive inhibitor,1800,9860,0.4337,–,–,2,–,–,–,–,–,–,–
"CC(C)=CCc1c(O)c(C/C=C(\C)C/C=C/C(C)(C)O)c2oc3ccc(O)cc3c(=O)c2c1O [Compound 3, 1,3,7-trihydroxy-4-[(2E,5E)-7-hydroxy-3,7-dimethylocta-2,5-dien-1-yl]-2-(3-methylbut-2-en-1-yl)-9H-xanthen-9-one]",35.8 ± 0.7,38.2,Non-competitive,20,1000,0.2168,–,–,–,–,–,–,–,–,–,–
"C=C(C)CC(O)c1c(O)c(C/C=C(\C)CCC=C(C)C)c2oc3ccc(O)cc3c(=O)c2c1O (stereo not shown) [Compound 4, cratoxanthone A]",3.8 ± 0.1,4.2,Non-competitive,55450,27140,0.7819,–,–,–,3,–,–,–,–,–,–
"C=C(C)C(O)CC/C(C)=C/Cc1c(O)c(CC=C(C)C)c(O)c2c(=O)c3cc(O)ccc3oc12 (stereo not shown) [Compound 1, (E)-1,3,7-trihydroxy-4-(6-hydroxy-3,7-dimethylocta-2,7-dien-1-yl)-2-(3-methylbut-2-en-1-yl)-9H-xanthen-9-one]",0.38 ± 0.03,0.17,competitive inhibitor,244300,157920,1.2897,–,decreased dramatically,–,30,100,reversible slow-binding inhibition; also recorded: simple slow-binding inhibitor; also recorded: simple reversible slow binding behavior,reversible inhibitor,141000,0.144,0.0203
